Patent US11412737B2, “Mixtures of beflubutamid or optically enriched forms thereof with a second herbicide” (FMC Corporation, priority 2016, dated 2022)

Columns and labels:
crop and weed species = assay: pre-emergence test, several crop and weed species together; format: in vivo; conditions: pre-emergent, 28 DAT (Tables 16 and 17), >95% e.e.
Method: (§1) Test compositions containing the test compounds were diluted with water to provide the appropriate test rate concentrations.
(§2) For pre-emergence testing, four disposable fiber flats (6 inch by 10 inch) for each rate of application of each herbicide solution were filled with top soil, to which seeds of each species were planted in furrows made by a template pressed on the top of the soil. The furrows were covered with soil after planting the seed and were watered well before application of the test compounds.
Fiber flats designated for treatment were placed in a spray chamber having a static platform and a movable sprayer and the height of the spray nozzle was 10.5 inches above the soil level. Once the sprayer was calibrated using water for spray volume of 30 gallons per acre, flats were sprayed with sprayer at a speed to receive a coverage equivalent of 30 gallons per acre. […]
The control of weeds was evaluated in each experimental test at 21 for wheat and 28 days after treatment (DAT) for all species. Data were analyzed using Minitab software at 95% confidence interval. […] Percent control was determined by a method similar to the 0 to 100 rating system disclosed in “Research Methods in Weed Science,” 2nd ed., B. Truelove, Ed.; Southern Weed Science Society; Auburn University, Auburn, Ala., 1977. […]

Palmer amaranth (AMAPA) = assay: pre-emergence test, weed control; format: in vivo, Amaranthus palmeri; conditions: pre-emergent, 28 DAT, (−)-BFL >95% e.e., rate g ai/ha by row: r6 62, r7 125, r8 125, r9 250, r10 445, r11 890, r12 45, r13 90, r14 62+125, r15 125+125, r16 62+250, r17 125+250, r18 62+445, r19 125+445, r20 62+890, r21 125+890, r22 62+45, r23 125+45, r24 62+90, r25 125+90
Method: as §1, §2
(§3) Fiber flats designated for treatment were placed in a spray chamber having a static platform and a movable sprayer and the height of the spray nozzle was 10.5 inches above the soil level. Once the sprayer was calibrated using water for spray volume of 30 gallons per acre, flats were sprayed with sprayer at a speed to receive a coverage equivalent of 30 gallons per acre. The application rates are those shown in the Tables below for the individual herbicidal solutions and the herbicide compositions of this invention. The pre-emergence flats were immediately placed in the greenhouse and watered lightly after treatment. Thereafter they were regularly watered and fertilized for the duration of the test.
(§4) The control of weeds was evaluated in each experimental test at 21 for wheat and 28 days after treatment (DAT) for all species. Data were analyzed using Minitab software at 95% confidence interval. The results, shown as an average of the replications, were compared with results observed in untreated control flats in the same tests. Percent control was determined by a method similar to the 0 to 100 rating system disclosed in “Research Methods in Weed Science,” 2nd ed., B. Truelove, Ed.; Southern Weed Science Society; Auburn University, Auburn, Ala., 1977. The rating system is as follows in Table 1.

Yellow foxtail (SETLU) = assay: pre-emergence test, weed control; format: in vivo; conditions: pre-emergent, 28 DAT
Method: as §1, §2, §3, §4

Blackgrass (ALOMY) = assay: pre-emergence test, weed control; format: in vivo; conditions: pre-emergent, 28 DAT
Method: as §1, §2, §3, §4

Wild oat (AVEFA) = assay: pre-emergence test, weed control; format: in vivo, Avena fatua; conditions: pre-emergent; for percentage of weed control, AVEFA: 28 DAT; for percentage of weed control, Wild Oat AVEFA: 21 DAT, rate g ai/ha by row: r4 94, r5 125, r6 250, r7 125, r8 250, r9 500, r10 94+125, r11 125+125, r12 94+250, r13 125+250, r14 94+500, r15 125+500
Method: as §1, §2, §3, §4

Green foxtail (SETVI) [1] = assay: pre-emergence test, weed control; format: in vivo, Setaria viridis; conditions: pre-emergent, 28 DAT
Method: as §1, §2, §3, §4

Velvetleaf (ABUTH) = assay: pre-emergence test, weed control; format: in vivo, Abutilon theophrasti; conditions: pre-emergent, 21 DAT, rate g ai/ha by row: r4 94, r5 125, r6 250, r7 125, r8 250, r9 500, r10 94+125, r11 125+125, r12 94+250, r13 125+250, r14 94+500, r15 125+500
Method: as §1, §2, §3, §4

velvetleaf (IPOHE) = assay: pre-emergence test, weed control; format: in vivo; conditions: pre-emergent, 21 DAT, rate g ai/ha by row: r4 94, r5 125, r6 250, r7 125, r8 250, r9 500, r10 94+125, r11 125+125, r12 94+250, r13 125+250, r14 94+500, r15 125+500
Method: as §1, §2, §3, §4

Large crabgrass (DIGSA) = assay: pre-emergence test, weed control; format: in vivo; conditions: pre-emergent, 28 DAT, rate g ai/ha by row: r4 94, r5 50, r6 100, r7 52.5, r8 70, r9 94+52.5, r10 94+70, r11 50+52.5, r12 50+70, r13 100+52.5, r14 100+70
Method: as §1, §2, §3, §4

[2] = test system: Common lambsquarters (CHEAL); assay: pre-emergence test, weed control; format: in vivo, Chenopodium album; conditions: pre-emergent, 28 DAT, (+)-BFL >95% e.e.; rate g ai/ha by row: r6 62.5, r7 125, r8 62.5, r9 125, r10 222, r11 445, r12 22.5, r13 45, r14 62.5+62.5, r15 125+62.5, r16 62.5+125, r17 125+125, r18 62.5+222, r19 125+222, r20 62.5+445, r21 125+445, r22 62.5+22.5, r23 125+22.5, r24 62.5+45, r25 125+45
Method: as §1, §2, §3, §4

Green foxtail (SETVI) [3] = assay: post-emergence test, weed control; format: in vivo, Setaria viridis; conditions: post-emergent, 28 DAT; BFL at 187.5 g, PTX at 890 g, combination of both
Method: as §1
For post-emergence testing, seeds of each species for each rate of application of each herbicide solution were planted in 7.5 cm×7.5 cm plastic pots filled with potting soil. The seeds were germinated and the resulting plants were allowed to grow in a greenhouse until they reached a growth stage, such as height, suitable for testing. Treatments were applied using compressed air in a track spray chamber at 30 gallons/acre (280 L/ha) using a TeeJet 8001E nozzle at 40 psi (2.76 bars). Pots of post-emergent treated plants were returned to the greenhouse and not watered for 24 hours after treatment. Thereafter they were regularly watered and fertilized for the duration of the test.
as §4

Jimsonweed (DATST) = assay: pre-emergence test, weed control; format: in vivo, Datura stramonium; conditions: pre-emergent, 28 DAT; BFL at 62.5 g, PTX at 90 g, combination of both
Method: as §1, §2, §3, §4

[4] = (−)-BFL >95% e.e., rate g ai/ha by row: r6 62, r7 125, r8 125, r9 250, r10 445, r11 890, r12 45, r13 90, r14 62+125, r15 125+125, r16 62+250, r17 125+250, r18 62+445, r19 125+445, r20 62+890, r21 125+890, r22 62+45, r23 125+45, r24 62+90, r25 125+90, 62 g ai/ha
[5] = (−)-BFL >95% e.e., rate g ai/ha by row: r6 62, r7 125, r8 125, r9 250, r10 445, r11 890, r12 45, r13 90, r14 62+125, r15 125+125, r16 62+250, r17 125+250, r18 62+445, r19 125+445, r20 62+890, r21 125+890, r22 62+45, r23 125+45, r24 62+90, r25 125+90, 125 g ai/ha
[6] = (+)-BFL >95% e.e., rate g ai/ha by row: r6 62.5, r7 125, r8 62.5, r9 125, r10 222, r11 445, r12 22.5, r13 45, r14 62.5+62.5, r15 125+62.5, r16 62.5+125, r17 125+125, r18 62.5+222, r19 125+222, r20 62.5+445, r21 125+445, r22 62.5+22.5, r23 125+22.5, r24 62.5+45, r25 125+45
[7] = (−)-BFL >95% e.e., rate g ai/ha by row: r6 62, r7 125, r8 125, r9 250, r10 445, r11 890, r12 45, r13 90, r14 62+125, r15 125+125, r16 62+250, r17 125+250, r18 62+445, r19 125+445, r20 62+890, r21 125+890, r22 62+45, r23 125+45, r24 62+90, r25 125+90, 445 g ai/ha
[8] = (−)-BFL >95% e.e., rate g ai/ha by row: r6 62, r7 125, r8 125, r9 250, r10 445, r11 890, r12 45, r13 90, r14 62+125, r15 125+125, r16 62+250, r17 125+250, r18 62+445, r19 125+445, r20 62+890, r21 125+890, r22 62+45, r23 125+45, r24 62+90, r25 125+90, 890 g ai/ha
[9] = (+)-BFL >95% e.e., rate g ai/ha by row: r6 62.5, r7 125, r8 62.5, r9 125, r10 222, r11 445, r12 22.5, r13 45, r14 62.5+62.5, r15 125+62.5, r16 62.5+125, r17 125+125, r18 62.5+222, r19 125+222, r20 62.5+445, r21 125+445, r22 62.5+22.5, r23 125+22.5, r24 62.5+45, r25 125+45, 222 g ai/ha
[10] = (+)-BFL >95% e.e., rate g ai/ha by row: r6 62.5, r7 125, r8 62.5, r9 125, r10 222, r11 445, r12 22.5, r13 45, r14 62.5+62.5, r15 125+62.5, r16 62.5+125, r17 125+125, r18 62.5+222, r19 125+222, r20 62.5+445, r21 125+445, r22 62.5+22.5, r23 125+22.5, r24 62.5+45, r25 125+45, 445 g ai/ha

CC[C@H](Oc1ccc(F)c(C(F)(F)F)c1)C(=O)NCc1ccccc1 [(−)-BFL, (2S)-2-[4-fluoro-3-(trifluoromethyl)phenoxy]-N-(phenylmethyl)butanamide]
herbicidal activity of the enantiomers compared (crop and weed species): the more active enantiomer | percentage of weed control, AMAPA (Palmer amaranth (AMAPA); 62 g ai/ha): 70% | percentage of weed control, AMAPA (Palmer amaranth (AMAPA); 125 g ai/ha): 97% | percentage of weed control, SETLU (Yellow foxtail (SETLU); [4]): 86% | percentage of weed control, SETLU (Yellow foxtail (SETLU); [5]): 100% | percentage of weed control, ALOMY (Blackgrass (ALOMY); [4]): 19% | percentage of weed control, ALOMY (Blackgrass (ALOMY); [5]): 32% | percentage of weed control, AVEFA (Wild oat (AVEFA); [4]): 7% | percentage of weed control, AVEFA (Wild oat (AVEFA); [5]): 11% | percentage of weed control, SETVI (Green foxtail (SETVI) [1]; [4]): 80% | percentage of weed control, SETVI (Green foxtail (SETVI) [1]; [5]): 97%

CCOCN(C(=O)CCl)c1c(C)cccc1CC [Acetochlor]
percentage of weed control, Velvetleaf ABUTH (Velvetleaf (ABUTH); 125 g ai/ha): 10% | percentage of weed control, Velvetleaf ABUTH (Velvetleaf (ABUTH); 250 g ai/ha): 11% | percentage of weed control, Morningglory IPOHE (velvetleaf (IPOHE); 125 g ai/ha): 5% | percentage of weed control, Morningglory IPOHE (velvetleaf (IPOHE); 250 g ai/ha): 6% | percentage of weed control, Morningglory IPOHE (velvetleaf (IPOHE); 500 g ai/ha): 8% | percentage of weed control, Wild Oat AVEFA (Wild oat (AVEFA); 125 g ai/ha): 13% | percentage of weed control, Wild Oat AVEFA (Wild oat (AVEFA); 250 g ai/ha): 11%

O=C(Nc1ccc(F)cc1F)c1cccnc1Oc1cccc(C(F)(F)F)c1 [Diflufenican]
percentage of weed control, DIGSA (Large crabgrass (DIGSA); 50 g ai/ha): 18% | percentage of weed control, DIGSA (Large crabgrass (DIGSA); 100 g ai/ha): 30%

CCOCCN(C(=O)CCl)C(=C(C)C)c1ccccc1 [PTX, Pethoxamid]
percentage of weed control, CHEAL [2]: 100% | control of green foxtail (Green foxtail (SETVI) [3]): 4% | control of jimsonweed (Jimsonweed (DATST)): 4% | percentage of weed control, AMAPA (Palmer amaranth (AMAPA); 445 g ai/ha): 98% | percentage of weed control, AMAPA (Palmer amaranth (AMAPA); 890 g ai/ha): 100% | percentage of weed control, SETLU (Yellow foxtail (SETLU); [6]): 99% | percentage of weed control, SETLU (Yellow foxtail (SETLU); [7]): 99% | percentage of weed control, SETLU (Yellow foxtail (SETLU); [8]): 100% | percentage of weed control, ALOMY (Blackgrass (ALOMY); [9]): 70% | percentage of weed control, ALOMY (Blackgrass (ALOMY); [10]): 96% | percentage of weed control, ALOMY (Blackgrass (ALOMY); [7]): 59% | percentage of weed control, ALOMY (Blackgrass (ALOMY); [8]): 83% | percentage of weed control, AVEFA (Wild oat (AVEFA); [9]): 84% | percentage of weed control, AVEFA (Wild oat (AVEFA); [10]): 92% | percentage of weed control, AVEFA (Wild oat (AVEFA); [7]): 89% | percentage of weed control, AVEFA (Wild oat (AVEFA); [8]): 92% | percentage of weed control, SETVI (Green foxtail (SETVI) [1]; [6]): 99% | percentage of weed control, SETVI (Green foxtail (SETVI) [1]; [7]): 98% | percentage of weed control, SETVI (Green foxtail (SETVI) [1]; [8]): 100%
